Measurements from EP0626016B1, “[…] […]” (BRITISH TECHNOLOGY GROUP LIMITED, priority 1992, dated 1993).

How the values were obtained:
[1] = system: HRP Type VIII; assay: PBBA enhancement with different peroxidase enzymes (Example 4); format: biochemical, horseradish
Method: (§1) Stock solutions (1mg/ml in 0.1mol/l Tris buffer, pH 8.6) of horseradish peroxidase Type VII, Type VIII and Arthromyces ramosus peroxidase (Sigma) were prepared. The luminol-hydrogen peroxide reagent was prepared as described previously. Luminol-hydrogen peroxide reagent (100µl, 1:10 dilution), either 40µl of PBBA (0.01mg/ml in 0.1mol/l Tris buffer, pH 8.6) or as a control, 40µl of Tris buffer (0.1mol/l, pH 8.6), and 10µl of HRP Type VII (1:50,000 dilution, 2ng) were added to a cuvette. The reagents were mixed and the light emission was recorded after 5 minutes using a Berthold Biolumat LB9500C.
(§2) The above experiment was repeated and the HRP Type VII was replaced by HRP Type VIII (2ng) or Arthromyces ramosus peroxidase (20pg).

[2] = molecular target: T1, Anti-mouse IgG (whole molecule) peroxidase conjugate (Armoracia rusticana, UniProt P00433); assay: Assay of peroxidase-antibody conjugate utilizing PBBA (Example 5); format: biochemical; conditions: for Signal (with PBBA): 40µl of PBBA 0.01 mg/ml; for Signal: Background: with PBBA
T1 sequence (P00433 31-338 limits assumed): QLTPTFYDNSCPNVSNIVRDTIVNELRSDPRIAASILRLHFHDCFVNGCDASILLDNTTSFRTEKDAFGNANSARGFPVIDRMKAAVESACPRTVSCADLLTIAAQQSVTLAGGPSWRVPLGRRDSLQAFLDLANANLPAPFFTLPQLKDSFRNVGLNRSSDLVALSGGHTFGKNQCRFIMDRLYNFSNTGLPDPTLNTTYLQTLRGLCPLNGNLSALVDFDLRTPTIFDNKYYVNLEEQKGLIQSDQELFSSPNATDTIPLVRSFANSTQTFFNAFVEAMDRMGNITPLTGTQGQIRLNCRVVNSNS
Method: Anti-mouse IgG (whole molecule) peroxidase conjugate (Sigma Chemical Co.) was diluted (1:5000) in 0.1 mol/l Tris buffer (pH 8.6). The luminol-hydrogen peroxide was prepared as described previously. The following reagents were added to a cuvette: 100µl of luminol-hydrogen peroxide (1:10 dilution), either 40µl of PBBA (0.01 mg/ml in 0.1 mol/l Tris buffer) or as a control, 40µl of Tris buffer (0.1 mol/l, pH 8.6), and different amounts of anti-mouse IgG (5µl, 10µl, 20µl, 30µl, 40µl). The reagents were mixed and the light emission was measured using a Berthold Biolumat LB9500C.

[3] = molecular target: T2, HRP Type VIA (Armoracia rusticana, UniProt P00433); assay: Effect of PBBA amount on the luminol or isoluminol-H2O2-HRP chemiluminescent reaction (Example 1, part 1); format: biochemical, horseradish; conditions: for Signal (no HRP) / Signal (with HRP): after 5 minutes
T2 sequence (P00433 31-338): T1 sequence (P00433 31-338 limits assumed)
Method: PBBA was added in various concentrations (range 0.05µg to 0.5µg) to a luminol-H2O2 reaction in the presence and absence of HRP. […] These two solutions were combined and protected from light. The luminol-hydrogen peroxide reagent (100µl of a 1:10 dilution) was added to a cuvette together with either 10µl of HRP Type VI A (HRP, Sigma Chemical Co., 1:50,000 dilution) or as a control 10µl of Tris Buffer (0.1mol/l, pH 8.6), and various amounts of PBBA (Aldrich Chemical Co.), range 0.05µg-0.5µg in 0.1mol/l Tris, pH 8.6). The reagents were mixed and the light emission recorded after 5 minutes on a Berthold Biolumat LB9500C.
This experiment was repeated, replacing the luminol with isoluminol. […]

[4] = molecular target: T3, Arthromyces ramosus peroxidase (Arthromyces ramosus, UniProt P28313); assay: PBBA enhancement with different peroxidase enzymes (Example 4); format: biochemical
T3 sequence (P28313 21-364): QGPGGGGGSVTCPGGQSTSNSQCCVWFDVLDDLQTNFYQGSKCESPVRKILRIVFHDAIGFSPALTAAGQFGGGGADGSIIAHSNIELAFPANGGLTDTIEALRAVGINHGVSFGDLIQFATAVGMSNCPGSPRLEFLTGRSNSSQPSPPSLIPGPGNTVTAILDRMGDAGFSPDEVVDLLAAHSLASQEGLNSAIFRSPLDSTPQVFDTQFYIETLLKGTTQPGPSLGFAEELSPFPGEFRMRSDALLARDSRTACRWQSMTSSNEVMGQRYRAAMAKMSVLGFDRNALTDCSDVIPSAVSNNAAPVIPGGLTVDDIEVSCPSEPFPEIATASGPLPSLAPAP
Method: as §1, §2

[5] = in the presence of PBBA, result in words

With `OB(O)c1ccc(Br)cc1` [PBBA, para-bromophenylboronic acid] the “Signal Reagent with PBBA” value ([1]; HRP Type VIII 2ng, 40µl of PBBA 0.01mg/ml, after 5 minutes) was 156,204, the “Signal: Background” value ([1]; HRP Type VIII, with PBBA) was 5.6 and the “Signal (with PBBA)” value ([2]; Anti-mouse IgG-HRP 0 (µl)) was 18,832. The “Signal (with PBBA)” value ([2]; Anti-mouse IgG-HRP 5 (µl), 1:5000 dilution) was 27,665, the “Signal: Background” value ([2]; Anti-mouse IgG-HRP 5 (µl)) was 1.5 and the “Signal (with PBBA)” value ([2]; Anti-mouse IgG-HRP 10 (µl), 1:5000 dilution) was 32,849. The “Signal: Background” value ([2]; Anti-mouse IgG-HRP 10 (µl)) was 1.7, the “Signal (with PBBA)” value ([2]; Anti-mouse IgG-HRP 20 (µl), 1:5000 dilution) was 68,994 and the “Signal: Background” value ([2]; Anti-mouse IgG-HRP 20 (µl)) was 3.7. The “Signal (with PBBA)” value ([2]; Anti-mouse IgG-HRP 30 (µl), 1:5000 dilution) was 407,087, the “Signal: Background” value ([2]; Anti-mouse IgG-HRP 30 (µl)) was 21.6 and the light emission [2, 5] was “increased”. The “signal to background ratio for the assay of the HRP conjugate” value [2, 5] was “significantly improved”, the “light emission in the luminol-HRP-peroxidase reaction” value ([3]; Column (a), result in words) was “enhances the light emission” and the “background level of luminescence” value ([3]; Column (b), result in words) was “reduces the background level of luminescence”. The “Signal: Background ratio” value ([3]; Isoluminol, PBBA 0.05 µg) was 2.1, the “Signal (no HRP)” value ([3]; Isoluminol, PBBA 0.05 µg) was 7664 and the “Signal (with HRP)” value ([3]; Isoluminol, PBBA 0.05 µg) was 15,772. The “Signal: Background ratio” value ([3]; Isoluminol, PBBA 0.1 µg) was 2.7, the “Signal (no HRP)” value ([3]; Isoluminol, PBBA 0.1 µg) was 6114 and the “Signal (with HRP)” value ([3]; Isoluminol, PBBA 0.1 µg) was 16,553. For the same compound, the “Signal: Background ratio” value ([3]; Isoluminol, PBBA 0.2 µg) was 11.9, the “Signal (no HRP)” value ([3]; Isoluminol, PBBA 0.2 µg) was 5736 and the “Signal (with HRP)” value ([3]; Isoluminol, PBBA 0.2 µg) was 68,282. For the same compound, the “Signal: Background ratio” value ([3]; Isoluminol, PBBA 0.3 µg) was 110.4, the “Signal (no HRP)” value ([3]; Isoluminol, PBBA 0.3 µg) was 5613 and the “Signal (with HRP)” value ([3]; Isoluminol, PBBA 0.3 µg) was 619,880. For the same compound, the “Signal: Background ratio” value ([3]; Isoluminol, PBBA 0.4 µg) was 147.0, the “Signal (no HRP)” value ([3]; Isoluminol, PBBA 0.4 µg) was 5278 and the “Signal (with HRP)” value ([3]; Isoluminol, PBBA 0.4 µg) was 775,965. The “Signal: Background ratio” value ([3]; Luminol, PBBA 0.05 µg) was 6.1, the “Signal (no HRP)” value ([3]; Luminol, PBBA 0.05 µg) was 16,556 and the “Signal (with HRP)” value ([3]; Luminol, PBBA 0.05 µg) was 101,227. The “Signal: Background ratio” value ([3]; Luminol, PBBA 0.1 µg) was 6.7, the “Signal (no HRP)” value ([3]; Luminol, PBBA 0.1 µg) was 16,065 and the “Signal (with HRP)” value ([3]; Luminol, PBBA 0.1 µg) was 108,213. For the same compound, the “Signal: Background ratio” value ([3]; Luminol, PBBA 0.2 µg) was 8.1, the “Signal (no HRP)” value ([3]; Luminol, PBBA 0.2 µg) was 13,890 and the “Signal (with HRP)” value ([3]; Luminol, PBBA 0.2 µg) was 112,644. For the same compound, the “Signal: Background ratio” value ([3]; Luminol, PBBA 0.3 µg) was 11.2, the “Signal (no HRP)” value ([3]; Luminol, PBBA 0.3 µg) was 10,899 and the “Signal (with HRP)” value ([3]; Luminol, PBBA 0.3 µg) was 122,116. For the same compound, the “Signal: Background ratio” value ([3]; Luminol, PBBA 0.4 µg) was 12.5, the “Signal (no HRP)” value ([3]; Luminol, PBBA 0.4 µg) was 10,706 and the “Signal (with HRP)” value ([3]; Luminol, PBBA 0.4 µg) was 133,401. For the same compound, the “Signal: Background ratio” value ([3]; Luminol, PBBA 0.5 µg) was 16.9, the “Signal (no HRP)” value ([3]; Luminol, PBBA 0.5 µg) was 8,963 and the “Signal (with HRP)” value ([3]; Luminol, PBBA 0.5 µg) was 151,572. For the same compound, the “Signal Reagent with PBBA” value ([4]; Arthromyces ramosus peroxidase 20pg, 40µl of PBBA 0.01mg/ml, after 5 minutes) was 58,208 and the “Signal: Background” value ([4]; Arthromyces ramosus peroxidase, with PBBA) was 2.1.
